Reference: paper PMC6409085, “Three odorant-binding proteins are involved in the behavioral response of Sogatella furcifera to rice plant volatiles” (PeerJ, 2019)
Values joined by “and” are separate entries in the source; they are usually repeats but may differ in a detail not shown here. Identical values can stand only once.

How the values were obtained:
Assay in all cases: biochemical
Type in all cases: binding
SfurOBP2 = SfurOBP2 (Sogatella furcifera, UniProt V5T759)
Procedure: (§1) Thirty-six rice odorants ([He et al., 2014]; [Wang et al., 2017]) and 1-N-phenyl-naphthylamine (1-NPN) were purchased from Sigma-Aldrich (St Louis, MO, USA). These odorants and 1-NPN were dissolved in high-performance liquid chromatography (HPLC) purify grade methanol for 1.0 mM as work solution.
(§2) Fluorescence competitive binding assays were performed on Tecan Spark 10M (Tecan Group Ltd., Männedorf, Switzerland) with the F96 Black ELIAS Plate (Sangon) ([Khuhro et al., 2017]; [Liu et al., 2017]). The solutions were excited at 337 nm and emission spectra were recorded between 390 and 490 nm. First, to test the binding constants of 1-NPN to the SfurOBPs, a 2.0 µM solution of protein in 50 mM Tris-HCl (pH = 7.4) was titrated with 1 mM 1-NPN to achieve virous concentrations. Next, the competitive binding of each odorant was measured using the 1-NPN as fluorescent reporter and odorant as competitor. The concentrations of protein and 1-NPN were both 2.0 µM, the odorant added after protein and 1-NPN added into the well of ELIAS Plate for 2 min. The final concentrations of each competitor were 2, 4, 6, 8, 10, 12, 14, 16, 18 and 20 µM. After 2 min of odorant added, the fluorescence intensity was measured and recorded. The volume of mixed solution in each well was maintained at 250 µL. Each interaction was performed in triplicates.
(§3) GraphPad Prism 7.0 software (GraphPad Software, Inc., La Jolla, CA, USA) was used to calculated and generated the binding constants (K1−NPN) of 1-NPN to SfurOBPs and relative Scatchard plots ([Ban et al., 2003]; [Li et al., 2016]). Dissociation constant (Ki) of each odorant to SfurOBP was computed from the corresponding IC50 value (the half maximal inhibitory concentration), using the following equation: Ki=[IC50]/(1 + [1-NPN]/K1−NPN), where [1-NPN] is the free concentration of 1-NPN and K1−NPN is the dissociation constant of the complex protein/1-NPN.

SfurOBP3 = SfurOBP3 (Sogatella furcifera, UniProt V5T818); conditions: OBP3, three replicate columns
SfurOBP3, sequence (V5T818 entry or part of it): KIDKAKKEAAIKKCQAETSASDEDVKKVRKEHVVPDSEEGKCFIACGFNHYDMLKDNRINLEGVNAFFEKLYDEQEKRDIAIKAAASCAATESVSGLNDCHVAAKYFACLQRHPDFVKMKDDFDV
Procedure: as §1, §2, §3

SfurOBP11 = SfurOBP11 (Sogatella furcifera, UniProt V5T6E3)
SfurOBP11, sequence (V5T6E3 entry or part of it): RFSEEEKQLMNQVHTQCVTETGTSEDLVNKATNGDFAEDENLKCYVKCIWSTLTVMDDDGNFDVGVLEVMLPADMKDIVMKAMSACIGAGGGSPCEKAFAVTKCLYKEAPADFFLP
Procedure: as §1, §2, §3

SfurOBP1 = SfurOBP1 (Sogatella furcifera, UniProt V5T8N5); conditions: OBP1, three replicate columns
SfurOBP1, sequence (V5T8N5 entry or part of it): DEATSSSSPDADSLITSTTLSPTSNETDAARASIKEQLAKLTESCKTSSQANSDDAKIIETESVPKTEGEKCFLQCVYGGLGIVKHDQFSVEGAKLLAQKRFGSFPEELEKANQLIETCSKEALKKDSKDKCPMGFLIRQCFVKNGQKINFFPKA
Procedure: as §1, §2, §3

SfurOBP2, sequence (V5T759 entry or part of it): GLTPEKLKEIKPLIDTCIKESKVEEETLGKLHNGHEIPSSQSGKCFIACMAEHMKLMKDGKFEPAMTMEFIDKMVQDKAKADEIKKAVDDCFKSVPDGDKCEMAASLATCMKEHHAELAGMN

For `CC(C)COC(=O)CCCCC(=O)OCC(C)C` [DA(diisobutyl adipate)], the “Fluorescence competitive binding assay, OBP2 (raw fluorescence reading)” value (SfurOBP2; ligand concentration 2 (unit not given), replicate column 1 of 3) was 18255, the “Fluorescence competitive binding assay, OBP2 (raw fluorescence reading)” value (SfurOBP2; ligand concentration 2 (unit not given), replicate column 2 of 3) was 18056 and the “Fluorescence competitive binding assay, OBP2 (raw fluorescence reading)” value (SfurOBP2; ligand concentration 2 (unit not given), replicate column 3 of 3) was 17857. The “Fluorescence competitive binding assay, OBP2 (raw fluorescence reading)” value (SfurOBP2; ligand concentration 4 (unit not given), replicate column 1 of 3) was 17231, the “Fluorescence competitive binding assay, OBP2 (raw fluorescence reading)” value (SfurOBP2; ligand concentration 4 (unit not given), replicate column 2 of 3) was 17998 and the “Fluorescence competitive binding assay, OBP2 (raw fluorescence reading)” value (SfurOBP2; ligand concentration 4 (unit not given), replicate column 3 of 3) was 18274. For the same compound, the “Fluorescence competitive binding assay, OBP2 (raw fluorescence reading)” value (SfurOBP2; ligand concentration 6 (unit not given), replicate column 1 of 3) was 16096, the “Fluorescence competitive binding assay, OBP2 (raw fluorescence reading)” value (SfurOBP2; ligand concentration 6 (unit not given), replicate column 2 of 3) was 17472 and the “Fluorescence competitive binding assay, OBP2 (raw fluorescence reading)” value (SfurOBP2; ligand concentration 6 (unit not given), replicate column 3 of 3) was 18707. For the same compound, the “Fluorescence competitive binding assay, OBP2 (raw fluorescence reading)” value (SfurOBP2; ligand concentration 8 (unit not given), replicate column 1 of 3) was 16149, the “Fluorescence competitive binding assay, OBP2 (raw fluorescence reading)” value (SfurOBP2; ligand concentration 8 (unit not given), replicate column 2 of 3) was 16678 and the “Fluorescence competitive binding assay, OBP2 (raw fluorescence reading)” value (SfurOBP2; ligand concentration 8 (unit not given), replicate column 3 of 3) was 16908. For the same compound, the “Fluorescence competitive binding assay, OBP2 (raw fluorescence reading)” value (SfurOBP2; ligand concentration 10 (unit not given), replicate column 1 of 3) was 15320, the “Fluorescence competitive binding assay, OBP2 (raw fluorescence reading)” value (SfurOBP2; ligand concentration 10 (unit not given), replicate column 2 of 3) was 15081 and the “Fluorescence competitive binding assay, OBP2 (raw fluorescence reading)” value (SfurOBP2; ligand concentration 10 (unit not given), replicate column 3 of 3) was 16366. The “Fluorescence competitive binding assay, OBP2 (raw fluorescence reading)” value (SfurOBP2; ligand concentration 12 (unit not given), replicate column 1 of 3) was 14706, the “Fluorescence competitive binding assay, OBP2 (raw fluorescence reading)” value (SfurOBP2; ligand concentration 12 (unit not given), replicate column 2 of 3) was 15645 and the “Fluorescence competitive binding assay, OBP2 (raw fluorescence reading)” value (SfurOBP2; ligand concentration 12 (unit not given), replicate column 3 of 3) was 15214. The “Fluorescence competitive binding assay, OBP2 (raw fluorescence reading)” value (SfurOBP2; ligand concentration 14 (unit not given), replicate column 1 of 3) was 14108, the “Fluorescence competitive binding assay, OBP2 (raw fluorescence reading)” value (SfurOBP2; ligand concentration 14 (unit not given), replicate column 2 of 3) was 14696 and the “Fluorescence competitive binding assay, OBP2 (raw fluorescence reading)” value (SfurOBP2; ligand concentration 14 (unit not given), replicate column 3 of 3) was 15283. For the same compound, the “Fluorescence competitive binding assay, OBP2 (raw fluorescence reading)” value (SfurOBP2; ligand concentration 16 (unit not given), replicate column 1 of 3) was 14285, the “Fluorescence competitive binding assay, OBP2 (raw fluorescence reading)” value (SfurOBP2; ligand concentration 16 (unit not given), replicate column 2 of 3) was 14484 and the “Fluorescence competitive binding assay, OBP2 (raw fluorescence reading)” value (SfurOBP2; ligand concentration 16 (unit not given), replicate column 3 of 3) was 14085. The “Fluorescence competitive binding assay, OBP2 (raw fluorescence reading)” value (SfurOBP2; ligand concentration 18 (unit not given), replicate column 1 of 3) was 14063, the “Fluorescence competitive binding assay, OBP2 (raw fluorescence reading)” value (SfurOBP2; ligand concentration 18 (unit not given), replicate column 2 of 3) was 14665 and the “Fluorescence competitive binding assay, OBP2 (raw fluorescence reading)” value (SfurOBP2; ligand concentration 18 (unit not given), replicate column 3 of 3) was 14360. For the same compound, the “Fluorescence competitive binding assay, OBP2 (raw fluorescence reading)” value (SfurOBP2; ligand concentration 20 (unit not given), replicate column 1 of 3) was 13793, the “Fluorescence competitive binding assay, OBP2 (raw fluorescence reading)” value (SfurOBP2; ligand concentration 20 (unit not given), replicate column 2 of 3) was 14314 and the “Fluorescence competitive binding assay, OBP2 (raw fluorescence reading)” value (SfurOBP2; ligand concentration 20 (unit not given), replicate column 3 of 3) was 13272. The “Fluorescence competitive binding assay, fluorescence intensity” value (SfurOBP3; ligand concentration 2) was 60413 and 65968 and 63200, the “Fluorescence competitive binding assay, fluorescence intensity” value (SfurOBP3; ligand concentration 4) was 61250 and 61185 and 61320 and the “Fluorescence competitive binding assay, fluorescence intensity” value (SfurOBP3; ligand concentration 6) was 60246 and 58949 and 59593. The “Fluorescence competitive binding assay, fluorescence intensity” value (SfurOBP3; ligand concentration 8) was 52502 and 56703 and 49181, the “Fluorescence competitive binding assay, fluorescence intensity” value (SfurOBP3; ligand concentration 10) was 59611 and 55127 and 57362 and the “Fluorescence competitive binding assay, fluorescence intensity” value (SfurOBP3; ligand concentration 12) was 47975 and 49504 and 49931. For the same compound, the “Fluorescence competitive binding assay, fluorescence intensity” value (SfurOBP3; ligand concentration 14) was 42590 and 46739 and 44665, the “Fluorescence competitive binding assay, fluorescence intensity” value (SfurOBP3; ligand concentration 16) was 36927 and 42551 and 39754 and the “Fluorescence competitive binding assay, fluorescence intensity” value (SfurOBP3; ligand concentration 18) was 35693 and 43209 and 41553. For the same compound, the “Fluorescence competitive binding assay, fluorescence intensity” value (SfurOBP3; ligand concentration 20) was 42100 and 41400 and 42823, the “Fluorescence intensity, fluorescence competitive binding assay, OBP11” value (“Fluorescence intensity … OBP11” below) (SfurOBP11; ligand concentration 2, replicate 1) was 28052 and the “Fluorescence intensity … OBP11” value (SfurOBP11; ligand concentration 2, replicate 2) was 24884. The “Fluorescence intensity … OBP11” value (SfurOBP11; ligand concentration 2, replicate 3) was 25998, the “Fluorescence intensity … OBP11” value (SfurOBP11; ligand concentration 4, replicate 1) was 25234 and the “Fluorescence intensity … OBP11” value (SfurOBP11; ligand concentration 4, replicate 2) was 27203. The “Fluorescence intensity … OBP11” value (SfurOBP11; ligand concentration 4, replicate 3) was 25942, the “Fluorescence intensity … OBP11” value (SfurOBP11; ligand concentration 6, replicate 1) was 26005 and the “Fluorescence intensity … OBP11” value (SfurOBP11; ligand concentration 6, replicate 2) was 24895. The “Fluorescence intensity … OBP11” value (SfurOBP11; ligand concentration 6, replicate 3) was 23079, the “Fluorescence intensity … OBP11” value (SfurOBP11; ligand concentration 8, replicate 1) was 23239 and the “Fluorescence intensity … OBP11” value (SfurOBP11; ligand concentration 8, replicate 2) was 23328. For the same compound, the “Fluorescence intensity … OBP11” value (SfurOBP11; ligand concentration 8, replicate 3) was 24337, the “Fluorescence intensity … OBP11” value (SfurOBP11; ligand concentration 10, replicate 1) was 23466 and the “Fluorescence intensity … OBP11” value (SfurOBP11; ligand concentration 10, replicate 2) was 24012. The “Fluorescence intensity … OBP11” value (SfurOBP11; ligand concentration 10, replicate 3) was 22919, the “Fluorescence intensity … OBP11” value (SfurOBP11; ligand concentration 12, replicate 1) was 20499 and the “Fluorescence intensity … OBP11” value (SfurOBP11; ligand concentration 12, replicate 2) was 21796. The “Fluorescence intensity … OBP11” value (SfurOBP11; ligand concentration 12, replicate 3) was 19860, the “Fluorescence intensity … OBP11” value (SfurOBP11; ligand concentration 14, replicate 1) was 20110 and the “Fluorescence intensity … OBP11” value (SfurOBP11; ligand concentration 14, replicate 2) was 20124. For the same compound, the “Fluorescence intensity … OBP11” value (SfurOBP11; ligand concentration 14, replicate 3) was 20151, the “Fluorescence intensity … OBP11” value (SfurOBP11; ligand concentration 16, replicate 1) was 18498 and the “Fluorescence intensity … OBP11” value (SfurOBP11; ligand concentration 16, replicate 2) was 20828. The “Fluorescence intensity … OBP11” value (SfurOBP11; ligand concentration 16, replicate 3) was 20812, the “Fluorescence intensity … OBP11” value (SfurOBP11; ligand concentration 18, replicate 1) was 20721 and the “Fluorescence intensity … OBP11” value (SfurOBP11; ligand concentration 18, replicate 2) was 21669. For the same compound, the “Fluorescence intensity … OBP11” value (SfurOBP11; ligand concentration 18, replicate 3) was 21849, the “Fluorescence intensity … OBP11” value (SfurOBP11; ligand concentration 20, replicate 1) was 20792 and the “Fluorescence intensity … OBP11” value (SfurOBP11; ligand concentration 20, replicate 2) was 21117. The “Fluorescence intensity … OBP11” value (SfurOBP11; ligand concentration 20, replicate 3) was 20999, the “Fluorescence competitive binding assay, fluorescence intensity” value (SfurOBP1; ligand concentration 2 (μM)) was 6756 and 5373 and 6005 and the “Fluorescence competitive binding assay, fluorescence intensity” value (SfurOBP1; ligand concentration 4 (μM)) was 6244 and 6492 and 6739. The “Fluorescence competitive binding assay, fluorescence intensity” value (SfurOBP1; ligand concentration 6 (μM)) was 6349 and 5828 and 6089, the “Fluorescence competitive binding assay, fluorescence intensity” value (SfurOBP1; ligand concentration 8 (μM)) was 6071 and 5880 and 6063 and the “Fluorescence competitive binding assay, fluorescence intensity” value (SfurOBP1; ligand concentration 10 (μM)) was 6080 and 6185 and 6121. For the same compound, the “Fluorescence competitive binding assay, fluorescence intensity” value (SfurOBP1; ligand concentration 12 (μM)) was 5959 and 5941 and 5922, the “Fluorescence competitive binding assay, fluorescence intensity” value (SfurOBP1; ligand concentration 14 (μM)) was 6211 and 5589 and 5885 and the “Fluorescence competitive binding assay, fluorescence intensity” value (SfurOBP1; ligand concentration 16 (μM)) was 6060 and 6168 and 5508. The “Fluorescence competitive binding assay, fluorescence intensity” value (SfurOBP1; ligand concentration 18 (μM)) was 6493 and 6572 and 6293 and the “Fluorescence competitive binding assay, fluorescence intensity” value (SfurOBP1; ligand concentration 20 (μM)) was 7139 and 6435 and 6856.
